Experimental data as given in publication PMC6143625, “A high throughput screen for next-generation leads targeting malaria parasite transmission” (Nature Communications, 2018).

Experiments:
[1] = system: P. falciparum stage V male gametocytes (male gamete formation); assay: P. falciparum dual gamete formation assay (Pf DGFA), male readout (exflagellation), 48 h carry-over format; format: cell-based, Plasmodium falciparum NF54; details: primary screen, 2 uM, 48 h incubation, single replicate
[2] = system: P. falciparum stage V female gametocytes (female gamete formation); assay: P. falciparum dual gamete formation assay (Pf DGFA), female readout (Pfs25 expression), 48 h carry-over format; format: cell-based, Plasmodium falciparum NF54; details: primary screen, 2 uM, 48 h incubation, single replicate

SMILES: CC(C)[C@H](NS(C)(=O)=O)C(=O)NCc1cc(-c2ccccc2)n[nH]1 [DDD01235932]
- %Inhibition Male @2uM [1]: 32.71%
- %Inhibition Female @2uM [2]: <30%

SMILES: CC(C)(C)Nc1nc(-c2cccnc2)c(-c2ccnc(NCCO)n2)s1 [DDD01235967]
- %Inhibition Male @2uM [1]: 38.85%
- %Inhibition Female @2uM [2]: <30%

SMILES: CCOCC(=O)N1CCC(c2nccn2Cc2cscn2)CC1 [DDD01243474]
- %Inhibition Male @2uM [1]: 109.47%
- %Inhibition Female @2uM [2]: <30%

SMILES: O=C(O)CCc1cc2n(n1)CCCN(C(=O)c1ccc(F)cc1F)C2 [DDD01243729]
- %Inhibition Male @2uM [1]: 76.28%
- %Inhibition Female @2uM [2]: <30%

SMILES: NCC1CCCN(c2nc(-c3ccccc3)nc3c2CCNCC3)C1 (stereo not shown) [DDD01244614]
- %Inhibition Male @2uM [1]: 71.27%
- %Inhibition Female @2uM [2]: 30.18%

SMILES: Cn1nnnc1SCCNC(=O)C1CCN(C(=O)C2CC2)CC1 [DDD01244691]
- %Inhibition Male @2uM [1]: 73.04%
- %Inhibition Female @2uM [2]: <30%

SMILES: CCC(C(=O)N(C)C)N1CCC(c2nccn2Cc2cscn2)CC1 (stereo not shown) [DDD01244731]
- %Inhibition Male @2uM [1]: 126.32%
- %Inhibition Female @2uM [2]: <30%

SMILES: CN(C)c1ccc(C(=O)N2CCCN(C3CCCCC3)CC2)cn1 [DDD01244855]
- %Inhibition Male @2uM [1]: <30%
- %Inhibition Female @2uM [2]: 30.12%

SMILES: COC(=O)c1ccc(C(=O)N2CCCC(Nc3ccc(F)cc3)C2)cc1 (stereo not shown) [DDD01244904]
- %Inhibition Male @2uM [1]: 109.47%
- %Inhibition Female @2uM [2]: <30%

SMILES: CN(Cc1cnn(C)c1)c1nccc(-c2cc(C(=O)O)ccn2)n1 [DDD01245058]
- %Inhibition Male @2uM [1]: <30%
- %Inhibition Female @2uM [2]: 33.22%

SMILES: Cc1nc[nH]c1CN1CCn2nc(CN3Cc4ccccc4C3)cc2C1 [DDD01245298]
- %Inhibition Male @2uM [1]: 30.45%
- %Inhibition Female @2uM [2]: <30%

SMILES: COc1cccc2c1OCC(C(=O)N1CCN(CCS(C)(=O)=O)CC1)C2 (stereo not shown) [DDD01245746]
- %Inhibition Male @2uM [1]: 56.62%
- %Inhibition Female @2uM [2]: <30%

SMILES: CCNC(=O)[C@@H]1C[C@H](NC(=O)c2cncnc2C)CN1Cc1ccsc1 [DDD01245940]
- %Inhibition Male @2uM [1]: <30%
- %Inhibition Female @2uM [2]: 96.27%

SMILES: Cc1cccc(=O)n1CCCNc1nc(N(C)C)nc2c1CCNC2 [DDD01245962]
- %Inhibition Male @2uM [1]: 35.31%
- %Inhibition Female @2uM [2]: <30%

SMILES: CN(C)Cc1nnc(C2CCN(c3ncccc3Cl)CC2)n1C1CC1 [DDD01246077]
- %Inhibition Male @2uM [1]: 30.72%
- %Inhibition Female @2uM [2]: <30%

SMILES: COCCN(C)CCN1CC2(CCN(C3CCOC3)CC2)OC1=O (stereo not shown) [DDD01246090]
- %Inhibition Male @2uM [1]: 126.32%
- %Inhibition Female @2uM [2]: <30%

SMILES: COc1cccc2c1OCC(C(=O)N1Cc3ccccc3C1)C2 (stereo not shown) [DDD01246187]
- %Inhibition Male @2uM [1]: 112.07%
- %Inhibition Female @2uM [2]: <30%

SMILES: O=C(c1ccccn1)N1C[C@H]2CC[C@@H](C1)N(C(=O)CCN1CCCC1)C2 [DDD01246765]
- %Inhibition Male @2uM [1]: 99.89%
- %Inhibition Female @2uM [2]: <30%

SMILES: CCc1ccc(CN(C)C(=O)C2CC(=O)N(c3cccc(O)c3)C2)nc1 (stereo not shown) [DDD01246796]
- %Inhibition Male @2uM [1]: 126.32%
- %Inhibition Female @2uM [2]: <30%

SMILES: C=C1C(C)(C)[C@@H]2CC[C@]1(C(=O)N1CCC(n3cc(CCO)nn3)CC1)C2 [DDD01246808]
- %Inhibition Male @2uM [1]: <30%
- %Inhibition Female @2uM [2]: 30.26%

SMILES: COCCN(C)CCN1CC2(CCN(C3CCSC3)CC2)OC1=O (stereo not shown) [DDD01246844]
- %Inhibition Male @2uM [1]: 176.84%
- %Inhibition Female @2uM [2]: <30%

SMILES: Cc1cccc(C(=O)N2CCCC(c3nccn3Cc3cscn3)C2)n1 (stereo not shown) [DDD01247041]
- %Inhibition Male @2uM [1]: 160.00%
- %Inhibition Female @2uM [2]: <30%

SMILES: Cc1ccccc1OCC(=O)N1CCOC2(CNCCOC2)C1 (stereo not shown) [DDD01247077]
- %Inhibition Male @2uM [1]: 174.44%
- %Inhibition Female @2uM [2]: <30%

SMILES: COc1cccc(Cn2c(C)c(C)oc2=O)c1OC [DDD01247327]
- %Inhibition Male @2uM [1]: <30%
- %Inhibition Female @2uM [2]: 30.45%

SMILES: CN(C)CC(=O)NC1CC(C)(C)Cc2nc(C(C)(C)C)ncc21 (stereo not shown) [DDD01247509]
- %Inhibition Male @2uM [1]: <30%
- %Inhibition Female @2uM [2]: 43.65%

SMILES: c1cc(CN2CCC(c3ccncc3)CC2)cc(Cn2cccn2)c1 [DDD01247553]
- %Inhibition Male @2uM [1]: 75.89%
- %Inhibition Female @2uM [2]: <30%

SMILES: CCNC(=O)[C@@H]1C[C@H](N)CN1C(=O)C1(c2ccc(OC)cc2)CCCC1 [DDD01247775]
- %Inhibition Male @2uM [1]: <30%
- %Inhibition Female @2uM [2]: 31.68%

SMILES: Cc1ccc(CN(Cc2ccncc2)C2CCN(C)CC2)s1 [DDD01247850]
- %Inhibition Male @2uM [1]: <30%
- %Inhibition Female @2uM [2]: 35.49%

SMILES: CSc1nccc(N2CCC(=O)N(CC3CC3)C(C(C)C)C2)n1 (stereo not shown) [DDD01248006]
- %Inhibition Male @2uM [1]: 91.33%
- %Inhibition Female @2uM [2]: <30%

SMILES: CCn1c(C2CCCN(C(=O)c3ccc[nH]3)C2)nn(CCN(C)C)c1=O (stereo not shown) [DDD01248239]
- %Inhibition Male @2uM [1]: 83.64%
- %Inhibition Female @2uM [2]: <30%

SMILES: CCc1ccc(CN(C)Cc2cnc(S(=O)(=O)CC)n2CCOC)cc1 [DDD01248618]
- %Inhibition Male @2uM [1]: 143.16%
- %Inhibition Female @2uM [2]: <30%

SMILES: O=C(O)C1(Oc2ccccc2F)CCN(C/C=C/c2ccco2)CC1 [DDD01248641]
- %Inhibition Male @2uM [1]: <30%
- %Inhibition Female @2uM [2]: 35.65%

SMILES: CN(C)C(=O)NCc1cc2n(n1)CCCN(CC1CCCNC1)C2 (stereo not shown) [DDD01248722]
- %Inhibition Male @2uM [1]: 166.37%
- %Inhibition Female @2uM [2]: <30%

SMILES: Cc1cccc2[nH]c(C3CCN(C(=O)c4ccc[nH]4)CC3)nc12 [DDD01248889]
- %Inhibition Male @2uM [1]: 179.77%
- %Inhibition Female @2uM [2]: <30%

SMILES: Cc1nc2cc(OCc3nc(C(=O)NC(C)(CO)CO)co3)ccc2s1 [DDD01248928]
- %Inhibition Male @2uM [1]: 109.47%
- %Inhibition Female @2uM [2]: <30%

SMILES: Cc1cccc(N2CCC(N3CCCC4(CNC(=O)O4)C3)CC2)c1C (stereo not shown) [DDD01248972]
- %Inhibition Male @2uM [1]: <30%
- %Inhibition Female @2uM [2]: 36.41%

SMILES: CCCn1cc(C(=O)NC2CCC(n3cnnc3)CC2)c(C)n1 (stereo not shown) [DDD01249122]
- %Inhibition Male @2uM [1]: 90.61%
- %Inhibition Female @2uM [2]: <30%

SMILES: COc1cccc2c1OCC(C(=O)N1CCSCC1)C2 (stereo not shown) [DDD01249304]
- %Inhibition Male @2uM [1]: 51.06%
- %Inhibition Female @2uM [2]: <30%

SMILES: O=C(c1ccccc1)N1CCCC(Nc2ccc(F)cc2)C1 (stereo not shown) [DDD01249390]
- %Inhibition Male @2uM [1]: 180.87%
- %Inhibition Female @2uM [2]: <30%

SMILES: Cc1noc(CN(C)C(=O)c2[nH]nc(N)c2-c2ccccc2)n1 [DDD01249532]
- %Inhibition Male @2uM [1]: <30%
- %Inhibition Female @2uM [2]: 61.65%

SMILES: Cc1nn(C)c2nc(N(C)CC3CCN(CC(C)C)C3)sc12 (stereo not shown) [DDD01249587]
- %Inhibition Male @2uM [1]: <30%
- %Inhibition Female @2uM [2]: 47.43%

SMILES: COc1cccc(OC2CN(C(=O)c3sccc3C)C2)c1 [DDD01250000]
- %Inhibition Male @2uM [1]: <30%
- %Inhibition Female @2uM [2]: 64.75%

SMILES: CN1CCC(N(C)C[C@H]2CC[C@@H](Cc3ccc4occc4c3)O2)CC1 [DDD01250070]
- %Inhibition Male @2uM [1]: <30%
- %Inhibition Female @2uM [2]: 33.03%

SMILES: CCc1nn(C)c(Cl)c1CN1CCCC2(CC1)CN(C)C(=O)O2 (stereo not shown) [DDD01250081]
- %Inhibition Male @2uM [1]: <30%
- %Inhibition Female @2uM [2]: 32.84%

SMILES: CN(C)Cc1nnc(C2CCN(c3ncccn3)CC2)n1C1CC1 [DDD01250187]
- %Inhibition Male @2uM [1]: 31.65%
- %Inhibition Female @2uM [2]: <30%

SMILES: CCc1ccccc1C(=O)N1C[C@@H](CN2CCOCC2)[C@@H](CO)C1 [DDD01250732]
- %Inhibition Male @2uM [1]: 143.16%
- %Inhibition Female @2uM [2]: <30%

SMILES: O=C(c1ccccn1)N1C[C@H]2CC[C@@H](C1)N(C(=O)CCC1CCCC1)C2 [DDD01250927]
- %Inhibition Male @2uM [1]: 61.83%
- %Inhibition Female @2uM [2]: <30%
